Results on six compounds are retold here after patent US9987299B2, “Methods of improving RNAi in well-differentiated airway epithelia” (University of Iowa Research Foundation, priority 2014, dated 2018).

One data set relates to CFTR protein. Put plainly: CFTR protein levels, immunoprecipitation and immunoblot with densitometry in HAE. Format: cell-based, human. The procedure:
(§1) FIG. 4. […] Alternatively, spiperone was applied apically and basolaterally to well-differentiated HAE for 6 hours, and then removed by rinsing before incubation for 4 hours with CFTR-targeting or NC1 DsiRNAs complexed with Transductin. In both cases, 24 hours after transfection, and RNA levels quantified by RT-qPCR. (b) A representative immunoblot from similarly treated wells, but cells were lysed and proteins visualized after immunoprecipitation with anti-CFTR antibody. Alpha-tubulin was used as a loading control. (c) Densitometry readings of immunoblots with results normalized to NC1 treated samples. In all cases, data are from 3 biological replicates and are mean±SD. ***p<0.001, **p<0.01 (Student's t-test).
HAE were rinsed with PBS and lysed in RIPA buffer (1% NP-40, 0.5% sodium deoxycholate, 0.1% SDS, 50 mM Tris, protease inhibitors [complete; mini, EDTA-free; Roche Biochemicals, Indianapolis, Ind.]) for 30 minutes at 4° C. The lysate were centrifuged in a table top centrifuge at 14,000 rpm for 20 minutes at 4° C. The supernatant was quantified by BCA protein assay kit (Pierce, Rockford, Ill.). Thirty micrograms of protein per lane was separated on a 10% Tris-HCL Criterion precast gel (Bio-Rad, Hercules, Calif.) for western blot analysis. The protein was transferred to Polyvinylidene difluoride membrane and then was probed with goat anti-RSV antibody purchased from Meridian Life Sciences (Memphis, Tenn.). The membrane was imaged, and then stripped with Restore Western Blot Stripping Buffer (Thermo Scientific, Lafayette, Colo.) for 15 minutes. The membrane was rinsed with Tris-buffered saline-Tween (TBS-T) and blocked in 5% bovine serum albumin (Research Products International Corp, Mt. Prospect, Ill.). The membrane was then reprobed with α-tubulin (Sigma-Aldrich).
On the technique in general: A western blot detects proteins with antibodies after separation by electrophoresis.

Data set [1] deals with Human HPRT mRNA. The data set is described as follows: HPRT mRNA silencing by DsiRNA-Transductin in well-differentiated HAE (RT-qPCR). Format: cell-based. The procedure: FIG. 1. […] (a) Well-differentiated HAE cultures grown at the ALI were incubated in adding HPRT-targeting or control NC1 DsiRNA (250 nM) formulated with Transductin containing 0.1 or 0.01 mg LOS (HPRT-targeting DsiRNAs) or 0.1 mg LOS (NC1 DsiRNA). After 4 hours, the apical surface was rinsed and 24 hours later, target RNA levels quantified by RT-qPCR. All mRNA levels were normalized to NC1-treated samples. Mean levels were calculated from three biological replicates, each done in triplicate. ***p<0.001, **p<0.01 (Student's t-test). […] Samples were normalized to NC1-treated cells. ***p<0.001, **p<0.01 (Student's t-test). […] PAFRa was present throughout transfection in cells pre-treated with the reagent. Cells were harvested and RNA quantified 24 hrs later. Samples were normalized to NC1-treated cells. **p<0.01 (Student's t-test).
FIG. 3. Spiperone improves RNAi responses in DsiRNA transduced cells. HAE were pre-treated with various small molecules at the concentration indicated. The drugs were added to the apical surface and the basolateral media for 6 hours. Both surfaces were then washed and HPRT or NC1 DsiRNA formulated with Transductin added to the apical surface. The cells were washed after 4 hours, and RT-qPCR done on cell lysates harvested 24 hours later.
Human airway epithelial cells were obtained from trachea and bronchi of lungs removed for organ donation from non-CF individuals. Cells were isolated by enzyme digestion as previously described. Following enzymatic dispersion, cells were seeded at a density of 5×10^5 cells/cm^2 onto collagen-coated, 0.6 cm^2 semi permeable membrane filters (Millipore polycarbonate filters; Millipore Corp., Bedford, Mass.). The cells were maintained at 37° C. in a humidified atmosphere of 5% CO2 air. Twenty-four hours after plating, the apical media was removed and the cells were maintained at an air-liquid interface (ALI) to allow differentiation of the epithelium. The culture medium consisted of 1:1 ratio mix of Dulbecco's modified Eagle's medium (DMEM)/Ham's F12, 5% Ultroser G (Biosepra S A, Cedex, France), 100 U/ml penicillin, 100 μg/ml streptomycin, 1% nonessential amino acids and 0.12 U/ml insulin. Studies were performed on well-differentiated epithelia approximately 4 to 6 weeks after initiation of the ALI cultures conditions. HEp-2 cells were maintained in MEM substituted with 10% fetal bovine serum and 100 U/ml penicillin.
PAF was purchased from Sigma-Aldrich. The reagent was reconstituted in ethanol and used in the experiment at a concentration of 200 nM or as described in the figures. PAF was added to the transfection mixture at the apical surface as well as to the basolateral media. PAFRa (WEB 2086) was purchased from Sigma-Aldrich. […] The reagent was incubated with the cells throughout the transfection period.
All the small molecules tested were purchased from Sigma-Aldrich. The chemicals were reconstituted in appropriate solutions as recommended by the manufacturer. The epithelia were pre-treated with drugs for 6 hours at concentrations used in the CMAP study or noted in the published literature. Following drug treatment, the epithelia were transduced with DsiRNA as described above.
For well-differentiated airway epithelia, transfection was performed mostly according to the manufacturer's protocol. In all cases, the apical surface of epithelia was rinsed twice with PBS before adding the transfection mixture to the apical surface. DsiRNAs were used at a concentration of 250 nM. The mixture was left on the cells for 4 hours after which the medium was removed, the apical surface rinsed with PBS and the cells incubated further for 24 hours. For all experiments, a minimum of 3 biological replicates, in triplicate, were done.
Total RNA was isolated using SV96 RNA isolation kit (Promega, Madison, Wis.), according to manufacturer's protocol. […]
Background: Quantitative PCR measures a nucleic acid by following its amplification.

The test system of the next data set is Human CFTR mRNA. Put plainly: CFTR mRNA silencing by CFTR DsiRNA-Transductin in well-differentiated HAE (RT-qPCR). In kind it is cell-based. The note with it: CFTR DsiRNA with simultaneous PAF treatment or spiperone pre-treatment. The procedure:
as §1
For well-differentiated airway epithelia, transfection was performed mostly according to the manufacturer's protocol. […]
Total RNA was isolated using SV96 RNA isolation kit (Promega, Madison, Wis.), according to manufacturer's protocol. […] One-fifteenth of the cDNA was then amplified and analyzed by using the 5′-nuclease assay in a 7900 Real Time PCR System (Applied Biosystems, Foster city, CA) using primer-probe pairs reaction buffer and Immolase DNA polymerase (Bioline, Taunton, Mass.). […] Absolute quantification of an mRNA target sequence within an unknown sample was determined by reference to a standard curve. […]

For data set [2] the following is noted: reference [38]; cited from earlier work.
The subject of data set [3] is Human HPRT mRNA. The following applies: Transductin alone or combined with enhancers of macropinocytosis; reference [17]; cited from earlier work.
Another data set deals with CFTR channel activity. Put plainly: Transepithelial short-circuit current and conductance in HAE. Format: cell-based, human. The note with it: control epithelia with or without PAF, or PAF and NC1 treated cells; sequential addition of agents.

Consider `O=C(CCCN1CCC2(CC1)C(=O)NCN2c1ccccc1)c1ccc(F)cc1` [Spiperone], for which the “CFTR protein levels compared to controls” value in the data set with CFTR protein (PAF or spiperone and CFTR DsiRNA-Transductin, immunoprecipitation, western blot) is “reduced CFTR protein levels”. Further, the “fully glycosylated CFTR band C” value in the data set on CFTR protein (densitometry, normalized to NC1 treated samples) is given as “significantly decreased”. Further, the “spiperone dose-response on silencing” value in the data set on Human HPRT mRNA [1] (increasing doses, 6 hours pretreatment (FIG. 9)) is on record as “marginal increases in silencing with increasing doses”. The “silencing of HPRT mRNA levels” value in the data set with Human HPRT mRNA [1] (spiperone 10 μM pretreatment before DsiRNA transduction) worked out at 25%. Further, in the data set with Human CFTR mRNA, the “silencing of CFTR mRNA levels” value is given as “approximately 30%”.

With `CCCCCCCCCCCCCC(=O)O[C@@H]1[C@@H](C)[C@@]2(O)[C@@H](C=C(CO)C[C@]3(O)C(=O)C(C)=C[C@@H]23)[C@@H]2C(C)(C)[C@]12OC(C)=O` [phorbol ester], the toxicity entry in data set [2] was “toxic and unsuitable for repeated applications or use in vivo”. Besides, the “gene silencing in well differentiated HAE with Transductin-DsiRNA plus phorbol ester” value in the data set on Human HPRT mRNA [1] (applicant's unpublished data) was “better silencing”.

Turning to “epidermal growth factor (NSDSECPLSHDGYCLHDGVCMYIEALDKYACNCVVGYIGERCQYRDLKWWELR; Epidermal growth factor; UniProt P01133 971-1023, looked up) [EGF, enhancer of macropinocytosis]”, the “gene silencing in well differentiated HAE with Transductin-DsiRNA, previously observed” value with Human HPRT mRNA [3] is on record as “very modest knockdown”.

`Cc1nnc2n1-c1sc(CCC(=O)N3CCOCC3)cc1C(c1ccccc1Cl)=NC2` [WEB2086]: the “inhibition of HPRT silencing in cells transduced with LOS or PAF” value in the data set on Human HPRT mRNA [1] (1 μM PAFRa) was “partially inhibited”. In addition, the “inhibition of HPRT silencing of LOS- or PAF-assisted transduction” value with Human HPRT mRNA [1] (100 μM PAFRa, pre- or post-treatment) is listed as “completely inhibited”.

In the case of `O=C(CNc1ccc2ccccc2c1)N/N=C/c1cc(Br)c(O)c(Br)c1O` [GlyH-101], the “cAMP-activated transepithelial short-circuit current (Isc and ΔIsc) and conductance (Gt)” value in the data set with CFTR channel activity is reported as “decreased both values”.

As to `CC(C)Cn1c(=O)n(C)c(=O)c2[nH]cnc21` [isobutylmethylxantine (IBMX), isobutylmethylxantine], in the data set on CFTR channel activity, the “cAMP-activated transepithelial short-circuit current (Isc and ΔIsc) and conductance (Gt)” value is recorded as “increased”.
